# Reference: US20190255144A1, “SPECIFIC OLIGOPEPTIDES AS ANTI-ANGIOGENIC DRUGS” (NEURONAX, priority 2014, published 2019)
# System: chorioallantoic membrane (CAM) vascularization
# Test: Treatments on the chorioallantoic membrane (CAM), fluorescein angiography
# Assay type: in vivo, chicken embryo
# Settings: impregnated sponge on CAM at ED9; oligopeptide 250 μg/mL (9 hours), VEGF 10 ng/mL
# Excerpt: In fact, TSP-1 is known for inducing the apoptosis of endothelial cells. […] It is also a decisive process under certain physiological and pathological conditions (cancers in particular). This mechanism is controlled by numerous factors having either an inhibitor potential or an activator. So as to evaluate the main properties of these in vivo factors, the most common model is the CAM (chorioallantoic membrane) model from the chicken embryo (Ribatti et al., 2000). It offers the advantage of making it possible to test the pro- or anti-angiogenic factors during an active angiogenesis phase between the embryonic stages 4j and 10j. The major effects of the various molecules can therefore be evaluated in vivo. The model of the CAM can also be used in experimental tumor development. The grafting of human cancer cells onto the surface of the CAM is carried out in the 9-day embryonic stage. Three days after the grafting at ED12, the formation of a tumor is visible at the surface of the CAM. The latter can be treated topically during the 48 hours that follow this stage, and the tumors are sampled at ED14j. The fertilized eggs (Haas Poultry Farm, Strasbourg, France) are kept for 24 hours at 18° C. before the incubation is started up. […] The embryonic stages are determined from tables of Hamburger and Hamilton (H and H, 1951). […]
substance,measurement,value
VEGF,Vascularization / microvascularization of the CAM (in words),the microvascularization is dense and comprises numerous vascular branches
